Data as given in article PMC8533211, “Computationally Assisted Lead Optimization of Novel Potent and Selective MAO-B Inhibitors” (Biomedicines, 2021).

Tests used:
[1] = target: T1, human recombinant MAO-A (Homo sapiens, UniProt P21397); assay: kynuramine oxidation deamination assay, MAO-A inhibition (IC50); type: biochemical; conditions: kynuramine 80 μM, mean ± S.D. of triplicate
T1 construct: purchased BD Biosciences (Bedford, MA, USA)
T1 sequence (P21397 1-527): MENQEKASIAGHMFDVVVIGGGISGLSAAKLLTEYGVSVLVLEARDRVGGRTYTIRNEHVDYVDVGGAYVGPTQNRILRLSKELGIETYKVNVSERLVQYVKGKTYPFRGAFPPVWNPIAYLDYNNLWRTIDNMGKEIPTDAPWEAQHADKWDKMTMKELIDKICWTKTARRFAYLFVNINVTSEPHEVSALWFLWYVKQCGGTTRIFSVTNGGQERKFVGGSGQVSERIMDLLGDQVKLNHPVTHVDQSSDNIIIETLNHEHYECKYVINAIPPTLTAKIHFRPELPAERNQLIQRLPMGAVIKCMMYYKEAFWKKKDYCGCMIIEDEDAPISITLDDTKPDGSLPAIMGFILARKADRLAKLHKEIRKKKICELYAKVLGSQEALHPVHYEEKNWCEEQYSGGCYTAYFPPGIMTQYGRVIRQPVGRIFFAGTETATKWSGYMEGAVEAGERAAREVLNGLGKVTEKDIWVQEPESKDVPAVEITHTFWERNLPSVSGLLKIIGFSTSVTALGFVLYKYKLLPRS
Description: (§1) A fixed single concentration of kynuramine substrate and varying concentrations of the test inhibitor were used to determine the IC50 values. The kynuramine concentrations for MAO-A and -B were 80 μM and 50 μM, respectively. These concentrations of kynuramine were twice the apparent KM value for substrate binding. […] Enzymatic reactions were performed in 50 μL of the assay mixture containing 0.1 M potassium phosphate buffer, pH 7.4. […] Reactions were initiated by the addition of 12.50 μL of MAO-A (to 5 μg/mL) or -B (to 10 μg/mL). The plate was incubated for 20 min at 37 °C, and the enzymatic reaction was terminated by the addition of 18.8 μL of 2N NaOH. Formation of the enzyme product, 4-hydroxyquinoline, was measured fluorometrically using a SpectraMax M5 fluorescence plate reader (Molecular Devices, Sunnyvale, CA, USA) with excitation (320 nm) and emission (380 nm) wavelengths and the Soft Max Pro program. The inhibition effects of enzyme activity were calculated as percent of product formation compared to the corresponding control (enzyme–substrate reaction) without inhibitors. Controls included the assays where the enzyme or the substrate was added after terminating the reaction to determine the interference with the fluorescence measurements. The IC50 values for MAO-A and -B inhibition were calculated from the concentration-dependent inhibition curves using XLFit® software.

[2] = target: T2, human recombinant MAO-B (Homo sapiens, UniProt P27338); assay: kynuramine oxidation deamination assay, MAO-B inhibition (IC50); type: biochemical; set-up: purchased BD Biosciences (Bedford, MA, USA); conditions: for Selectivity Index MAO-A/B: ratio of IC50 MAO-A / MAO-B; for IC50: recombinant human MAO-B, kynuramine 50 μM, mean ± S.D. of triplicate
T2 sequence (P27338 1-520): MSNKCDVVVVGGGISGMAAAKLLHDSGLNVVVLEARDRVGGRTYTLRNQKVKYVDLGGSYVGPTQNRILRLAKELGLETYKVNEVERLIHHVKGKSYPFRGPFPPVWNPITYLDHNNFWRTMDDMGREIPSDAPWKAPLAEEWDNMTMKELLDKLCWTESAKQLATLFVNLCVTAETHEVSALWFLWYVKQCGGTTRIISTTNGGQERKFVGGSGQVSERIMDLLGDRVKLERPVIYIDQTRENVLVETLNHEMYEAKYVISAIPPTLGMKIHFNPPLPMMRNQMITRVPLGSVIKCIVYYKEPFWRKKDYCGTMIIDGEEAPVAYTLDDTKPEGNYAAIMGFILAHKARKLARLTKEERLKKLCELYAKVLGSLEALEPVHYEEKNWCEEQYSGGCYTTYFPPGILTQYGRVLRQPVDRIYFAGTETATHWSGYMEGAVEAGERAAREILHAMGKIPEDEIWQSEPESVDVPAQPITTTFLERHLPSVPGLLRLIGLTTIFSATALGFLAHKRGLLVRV
Description: as §1, with “The kynuramine concentrations for MAO-A and -B were 80 μM and 50 μM, respectively.” left out

[3] = system: human recombinant MAO B; conditions: cited from earlier work

Row | Structure (SMILES) | IC50 [1] [µM] | Selectivity Index MAO-A/B [2] | IC50 [2] [µM] | nature of MAO-B inhibition (reversible/irreversible) [3] | selectivity towards MAO-B against MAO-A [3] [fold]
1 | C#CCOc1ccc(/C=C/C(=O)c2c(O)cc(OC)cc2OC)cc1 [Compound 4a, (E)-1-(2-Hydroxy-4,6-dimethoxyphenyl)-3-(4-(prop-2-yn-1-yloxy)phenyl)prop-2-en-1-one] | 9.42 ± 1.78 | 1.1 | 8.33 ± 0.787 |  | 
2 | CCCNc1ccc(-c2cc(=O)c3c(O)cc(OC)cc3o2)cc1 [Compound 6d, 5-Hydroxy-7-methoxy-2-(4-(propylamino)phenyl)-4H-chromen-4-one] | 85.5 ± 1.59 | 55.0 | 1.55 ± 0.137 |  | 
3 | COc1cc(O)c(C(=O)/C=C/c2ccc(OCC(C)C)cc2)c(OC)c1 [Compound 3a, (E)-1-(2-Hydroxy-4,6-dimethoxyphenyl)-3-(4-isobutoxyphenyl)prop-2-en-1-one] | 0.42 ± 0.002 | 1.9 | 0.22 ± 0.0211 |  | 
4 | C#CCOc1ccc(-c2cc(=O)c3c(OC)cc(OC)cc3o2)cc1 [Compound 4b, 5,7-Dimethoxy-2-(4-(prop-2-yn-1-yloxy)phenyl)-4H-chromen-4-one] | > 100 | >1 | > 100 |  | 
5 | COc1cc(O)c2c(=O)cc(-c3ccc(NC(C)C)cc3)oc2c1 [Compound 7d, 5-Hydroxy-2-(4-(Isopropylamino)phenyl)-7-methoxy-4H-chromen-4-one] | 40.5 ± 2.37 | 97.1 | 0.417 ± 0.012 |  | 
6 | COc1cc(O)c(C(=O)/C=C/c2ccc(Br)cc2)c(OC)c1 [Compound 6a, (E)-3-(4-Bromophenyl)-1-(2-hydroxy-4,6-dimethoxyphenyl)prop-2-en-1-one] | 12.3 ± 0.249 |  | > 100 |  | 
7 | COc1cc(OC)c2c(=O)cc(-c3ccc(NCC4CC4)cc3)oc2c1 [Compound 8c, 2-(4-((Cyclopropylmethyl)amino)phenyl)-5,7-dimethoxy-4H-chromen-4-one] | 39.1 ± 5.14 | 3.1 | 12.7 ± 0.29 |  | 
8 | COc1ccc2c(c1)[nH]c1c(C)nccc12 [Harmine, reference compound] |  |  | 39 ± 1.41 |  | 
9 | C#CCN[C@@H]1CCc2ccccc21 [Rasagiline] |  |  |  | irreversible MAO-B inhibitors | 103

Now from value to compound, other results behind:

Row | IC50 [1] [µM] | Selectivity Index MAO-A/B [2] | IC50 [2] [µM] | Structure (SMILES) | nature of MAO-B inhibition (reversible/irreversible) [3] | selectivity towards MAO-B against MAO-A [3] [fold]
10 | 87.8 ± 5.45 | 3.1 | 28.4 ± 2.64 | COc1cc(OC)c2c(=O)cc(-c3ccc(Br)cc3)oc2c1 [Compound 6b, 2-(4-Bromophenyl)-5,7-dimethoxy-4H-chromen-4-one] |  | 
11 | 0.515 ± 0.024 | 1.3 | 0.4 ± 0.024 | CCCOc1ccc(/C=C/C(=O)c2c(O)cc(OC)cc2OC)cc1 [Compound 1a, (E)-1-(2-Hydroxy-4,6-dimethoxyphenyl)-3-(4-propoxyphenyl)prop-2-en-1-one] |  | 
12 | 37.5 ± 0.476 | 4.0 | 9.45 ± 0.113 | COc1cc(OC)c2c(=O)cc(-c3ccc(NC(C)C)cc3)oc2c1 [Compound 7c, 2-(4-(Isopropylamino)phenyl)-5,7-dimethoxy-4H-chromen-4-one] |  | 
13 | 1.3 ± 0.09 | 1.4 | 0.9 ± 0.035 | COc1cc(O)c(C(=O)/C=C/c2ccc(OCC3CC3)cc2)c(OC)c1 [Compound 5a, (E)-3-(4-(Cyclopropylmethoxy)phenyl)-1-(2-hydroxy-4,6-dimethoxyphenyl)prop-2-en-1-one] |  | 
14 | 39.1 ± 0.555 | 17.9 | 2.19 ± 0.088 | COc1cc(O)c2c(=O)cc(-c3ccc(NCC4CC4)cc3)oc2c1 [Compound 8d, 2-(4-((Cyclopropylmethyl)amino)phenyl)-5-hydroxy-7-methoxy-4H-chromen-4-one] |  | 
15 | 0.117 ± 0.05 | 2.4 | 0.049 ± 0.0035 | COc1cc(O)c(C(=O)/C=C/c2ccc(OC(C)C)cc2)c(OC)c1 [Compound 2a, (E)-1-(2-Hydroxy-4,6-dimethoxyphenyl)-3-(4-isopropoxyphenyl)prop-2-en-1-one] |  | 
16 | > 100 | >4.5 | 22.1 ± 2.48 | CCCNc1ccc(-c2cc(=O)c3c(OC)cc(OC)cc3o2)cc1 [Compound 6c, 5,7-Dimethoxy-2-(4-(propylamino)phenyl)-4H-chromen-4-one] |  | 
